One may read the Ki as a measure of affinity in units of concentration, obtained from inhibition or displacement. Higher therefore signals lower affinity.

The text below walks through data of patent US8053574B2, “Organic compounds” (Novartis AG, priority 2007, dated 2011).

Structures are written as SMILES.

This experiment addresses PI3K γ (Homo sapiens, UniProt P48736). Kind of experiment: PI3 kinase phosphorylation assay (Biological Method 1), Ki γ. It counts as biochemical. As for the experimental part:
The compounds of the invention were synthesized according to the examples provided above. PI3K inhibitory (IC50) values of the compounds were determined according to Biological Method 1.
Assay 1: Homogenous Solution Phase Assay
Compounds to be tested are dissolved in DMSO and directly distributed into 384-well flashplates at 1.25 μL per well. To start the reaction, 20 μL of 6 nM PI3 kinase are added into each well followed by 20 μL of 400 nM ATP containing a trace of radiolabeled ATP and 900 nM 1-alpha-phosphatidylinositol (PI). The plates are briefly centrifuged to remove any air gap. The reaction is performed for 15 minutes and then stopped by the addition of 20 μL of 100 mM EDTA. The stopped reaction is incubated overnight at RT to allow the lipid substrate to bind by hydrophobic interaction to the surface of the flashplate. The liquid in the wells is then washed away, and the labeled substrate is detected with scintillation counting.
Assay 2: One Step Solid Phase Assay
This method is similar to Assay 1 except that the lipid substrate (1-alpha-phosphatidylinositol (PI)) is first dissolved in a coating buffer and incubated on flashplate at room temperature overnight to allow the lipid substrate to bind by hydrophobic interaction to the surface of the flashplate. Unbound substrate is then washed away. On the day of assay, 20 μL of 6 nM PI3 kinase are added into each well followed by 20 μL of 400 nM ATP containing trace of radiolabeled ATP. Compounds are added together with enzyme and ATP to the lipid-coated plates. The plates are briefly centrifuged to remove any air gap. The reaction is performed for two to three hours. The reaction is stopped by addition of 20 μL of 100 mM EDTA or by immediate plate washing. Phosphorylated lipid substrate is detected by scintillation counting.
Assay 3: ATP Depletion Assay
Compounds to be tested are dissolved in DMSO and directly distributed into a black 384-well plate at 1.25 μL per well. To start the reaction, 25 μL of 10 nM PI3 kinase and 5 μg/mL 1-alpha-phosphatidylinositol (PI) are added into each well followed by 25 μL of 2 μM ATP. The reaction is performed until approx 50% of the ATP is depleted, and then stopped by the addition of 25 μL of KinaseGlo solution. The stopped reaction is incubated for 5 minutes and the remaining ATP is then detected via luminescence.

[1] abbreviates: Table 1, compounds of formula X.
Setting [2] is: Table 3, compounds of formula XI.
[3] abbreviates: Table 2, compounds of formula X.

Chain of PI3K γ (P48736 whole entry): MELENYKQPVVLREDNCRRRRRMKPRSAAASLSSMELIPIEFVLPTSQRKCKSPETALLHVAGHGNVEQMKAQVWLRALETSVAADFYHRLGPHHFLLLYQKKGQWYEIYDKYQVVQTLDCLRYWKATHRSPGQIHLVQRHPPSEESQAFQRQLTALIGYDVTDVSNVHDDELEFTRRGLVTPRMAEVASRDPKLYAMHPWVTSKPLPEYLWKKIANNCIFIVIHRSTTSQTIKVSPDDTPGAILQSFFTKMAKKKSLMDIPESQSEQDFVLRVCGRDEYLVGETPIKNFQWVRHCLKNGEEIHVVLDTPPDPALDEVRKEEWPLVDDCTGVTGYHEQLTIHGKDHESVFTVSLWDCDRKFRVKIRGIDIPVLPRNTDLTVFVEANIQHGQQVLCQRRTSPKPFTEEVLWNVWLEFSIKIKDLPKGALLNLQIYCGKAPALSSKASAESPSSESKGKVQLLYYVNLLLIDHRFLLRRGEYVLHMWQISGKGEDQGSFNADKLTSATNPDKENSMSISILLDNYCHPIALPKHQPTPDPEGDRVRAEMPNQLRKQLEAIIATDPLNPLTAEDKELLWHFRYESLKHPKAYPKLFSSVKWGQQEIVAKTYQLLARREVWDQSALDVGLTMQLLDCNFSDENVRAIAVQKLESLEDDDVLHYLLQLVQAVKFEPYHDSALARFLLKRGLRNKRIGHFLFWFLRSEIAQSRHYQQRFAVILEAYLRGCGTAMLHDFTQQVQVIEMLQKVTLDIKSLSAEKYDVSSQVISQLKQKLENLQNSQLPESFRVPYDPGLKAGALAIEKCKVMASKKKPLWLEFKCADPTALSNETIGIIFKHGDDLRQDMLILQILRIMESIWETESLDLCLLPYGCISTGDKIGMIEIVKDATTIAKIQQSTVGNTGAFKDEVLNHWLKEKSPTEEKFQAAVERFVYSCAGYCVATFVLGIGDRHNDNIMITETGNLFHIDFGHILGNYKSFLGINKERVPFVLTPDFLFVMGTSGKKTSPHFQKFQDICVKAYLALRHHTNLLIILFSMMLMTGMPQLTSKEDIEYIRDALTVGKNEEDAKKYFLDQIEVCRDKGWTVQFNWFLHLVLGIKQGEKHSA

`CCn1nnc(CCNC(=O)Nc2cn3cc(-c4cc(Cl)cc(OC)c4)ccc3n2)n1` gave a Ki under setting [1] of 0.204 µM.
`CCn1nnc(CCNC(=O)Nc2cn3cc(-c4cncc(C(F)(F)F)c4)ncc3n2)n1` [Example 3-4, 1-[2-(2-Ethyl-2H-tetrazol-5-yl)-ethyl]-3-[6-(5-trifluoromethyl-pyridin-3-yl)-imidazo[1,2-a]pyrazin-2-yl]-urea] came in with a Ki (Table 4) of 0.027 µM.
`CCn1nnc(CCNC(=O)Nc2cn3cc(-c4cncc5ccccc45)ccc3n2)n1` [drawing 97] yielded a Ki under setting [1] of 0.158 µM.
Under setting [1], `Cn1nnc(CCNC(=O)Nc2cn3cc(-c4cncc(C(F)(F)F)c4)ccc3n2)n1` [drawing 89] gave an inhibition constant (Ki) of 0.012 µM.
`O=C(NCCc1nnn(CCF)n1)Nc1nc2ccc(-c3cncc(C(F)(F)F)c3)cc2s1` [Example 2-8, 1-{2-[2-(2-Fluoro-ethyl)-2H-tetrazol-5-yl]-ethyl}-3-[6-(5-trifluoromethyl-pyridin-3-yl)-benzothiazol-2-yl]urea]: under setting [2], the affinity corresponds to a Ki of 0.016 µM.
For the compound `CCn1nnc(CCNC(=O)Nc2cn3nc(-c4cncc(F)c4)ccc3n2)n1` [Example 3-17, 1-[2-(2-Ethyl-2H-tetrazol-5-yl)-ethyl]-3-[6-(5-fluoro-pyridin-3-yl)-imidazo[1,2-b]pyridazin-2-yl]-urea], the Ki (Table 4) was found to be 0.107 µM.
Under setting [1], `Cc1ccc(-c2ccc3nc(NC(=O)NCCc4nnn(C(C)C)n4)cn3c2)cn1` [drawing 61] showed a Ki of 0.113 µM.
`CCn1nnc(CCNC(=O)Nc2nc3cc(-c4cccnc4)ccn3n2)n1` [Example 3-15, 1-[2-(2-Ethyl-2H-tetrazol-5-yl)-ethyl]-3-(7-pyridin-3-yl-[1,2,4]triazolo[1,5-a]pyridin-2-yl)-urea]: the Ki (Table 4) was determined as 0.502 µM.
On to `CCc1nnn(CCNC(=O)Nc2cn3cc(-c4cncc(C#N)c4)ccc3n2)n1` [Example 1-26, 1-[6-(5-Cyano-pyridin-3-yl)-imidazo[1,2-a]pyridin-2-yl]-3-[2-(5-ethyl-tetrazol-2-yl)-ethyl]-urea], for which affinity under setting [3] was put at a Ki of 0.115 µM.
The same measure, in the same setting: under `COc1ccc(-c2ccc3nc(NC(=O)NCCc4nnn(CCF)n4)cn3c2)cn1` [Example 1-20, 1-[2-[2-(2-Fluoro-ethyl)-2H-tetrazol-5-yl]-ethyl]-3-[6-(6-methoxy-pyridin-3-yl)-imidazo[1,2-a]pyridin-2-yl]-urea] stands 0.075 µM.
Regarding `Cc1ccccc1-c1cncc(-c2ccc3nc(NC(=O)NCCc4nnn(C(C)C)n4)cn3c2)c1` [drawing 91], affinity under setting [1] was put at a Ki of 1.12 µM.
As for `CCn1nnc(CCNC(=O)Nc2cn3cc(-c4cnn(C)c4)ccc3n2)n1` [drawing 93], under setting [1], the Ki worked out at 0.456 µM.
Take `CC(C)(C)NC(=O)CCNC(=O)Nc1cn2cc(-c3cncc(OC4CCOCC4)c3)ccc2n1` [Example 1-18, N-tert-Butyl-3-(3-{6-[5-(tetrahydro-pyran-4-yloxy)-pyridin-3-yl]-imidazo[1,2-a]pyridin-2-yl}-ureido)-propionamide]: affinity under setting [3] was put at a Ki of 0.397 µM.
For `COc1ccc(-c2ccc3nc(NC(=O)NCCc4nnn(CCF)n4)sc3c2)cn1` [Example 2-2, 1-{2-[2-(2-Fluoro-ethyl)-2H-tetrazol-5-yl]-ethyl}-3-[6-(6-methoxy-pyridin-3-yl)-benzothiazol-2-yl]-urea], under setting [2], the Ki was determined as 0.02 µM.
Regarding `CCc1nnn(CCNC(=O)Nc2cn3cc(-c4cncc(C#N)c4)ccc3n2)n1` [drawing 65], the affinity under setting [1] corresponds to a Ki of 0.115 µM.
On the same count and under the same terms, under `CC(C)n1nnc(CCNC(=O)Nc2cn3cc(-c4cncc(Cl)c4)ccc3n2)n1` [drawing 37] stands 0.05 µM.
With `CCOc1cncc(-c2ccc3nc(NC(=O)NCCc4nnn(C(C)C)n4)cn3c2)c1` [Example 1-6, 1-[6-(5-Ethoxy-pyridin-3-yl)-imidazo[1,2-a]pyridin-2-yl]-3-[2-(2-isopropyl-2H-tetrazol-5-yl)-ethyl]-urea], the Ki under setting [3] amounted to 0.048 µM.
With `CC(C)(C)NC(=O)CCNC(=O)Nc1cn2cc(-c3cncc(-c4ccccc4)c3)ccc2n1` [Example 1-15, N-tert-Butyl-3-{3-[6-(5-phenyl-pyridin-3-yl)-imidazo[1,2-a]pyridin-2-yl]ureido}-propionamide], the affinity under setting [3], expressed as Ki, was 0.207 µM.
The compound `CC(C)n1nnc(CCNC(=O)Nc2cn3cc(-c4ccccc4)ccc3n2)n1` [drawing 75] yielded a Ki under setting [1] of 0.423 µM.
Same read-out and setting: under `COCCOCCOc1cncc(-c2ccc3nc(NC(=O)NCCc4nnn(C(C)C)n4)cn3c2)c1` [drawing 47] stands 0.268 µM.
Compound `COc1ccc(-c2ccc3nc(NC(=O)NCCO)sc3c2)cn1` [Example 2-4, 1-(2-Hydroxy-ethyl)-3-[6-(6-methoxy-pyridin-3-yl)-benzothiazol-2-yl]-urea] returned a Ki under setting [2] of 0.038 µM.
Turning to `CCn1nnc(CCNC(=O)Nc2nc3ccc(-c4cncc(C(F)(F)F)c4)cn3n2)n1` [Example 3-7, 1-[2-(2-Ethyl-2H-tetrazol-5-yl)-ethyl]-3-[6-(5-trifluoromethyl-pyridin-3-yl)-[1,2,4]triazolo[1,5-a]pyridin-2-yl]-urea], the affinity (Table 4), expressed as Ki, was 0.376 µM.
In turn, `CC(C)n1nnc(CCNC(=O)Nc2cn3cc(-c4cncc(-c5ccccc5)c4)ccc3n2)n1` [drawing 45] displayed a Ki under setting [1] of 0.24 µM.
Still for that read-out and setting: with `CCn1nnc(CCNC(=O)Nc2cn3cc(-c4ccc5c(c4)OCO5)ccc3n2)n1` [drawing 29] the figure was 0.303 µM.
`CCn1nnc(CCNC(=O)Nc2cn3cc(-c4cc(Cl)ccc4OC)ccc3n2)n1` [Example 1-14, 1-[6-(5-Chloro-2-methoxy-phenyl)-imidazo[1,2-a]pyridin-2-yl]-3-[2-(2-ethyl-2H-tetrazol-5-yl)-ethyl]urea] gave a Ki under setting [3] of 0.204 µM.
Same read-out and setting: under `CCc1nnn(CCNC(=O)Nc2cn3cc(-c4cncc(C(F)(F)F)c4)ccc3n2)n1` [Example 1-25, 1-[2-(5-Ethyl-tetrazol-2-yl)-ethyl]-3-[6-(5-trifluoromethyl-pyridin-3-yl)-imidazo[1,2-a]pyridin-2-yl]urea] stands 0.026 µM.
Compound `CCn1nnc(CCNC(=O)Nc2cn3cc(-c4cncc(C(F)(F)F)c4)ccc3n2)n1` [Example 1-34, 1-[2-(2-Ethyl-2H-tetrazol-5-yl)-ethyl]-3-[6-(5-trifluoromethyl-pyridin-3-yl)-imidazo[1,2-a]pyridin-2-yl]-urea] returned a Ki under setting [3] of 0.007 µM.
On to `CCn1nnc(CCNC(=O)Nc2cn3cc(-c4cncc(C(F)(F)F)c4)ccc3n2)n1` [drawing 81], for which the Ki under setting [1] came to 0.007 µM.
Same read-out and setting: with `CC(C)(C)NC(=O)CCNC(=O)Nc1cn2cc(-c3cncc(OC4CCOCC4)c3)ccc2n1` [drawing 49] the figure was 0.397 µM.
`CCn1nnc(CCNC(=O)Nc2cn3cc(-c4cnc5ccccc5c4)ccc3n2)n1` [Example 1-30, 1-[2-(2-Ethyl-2H-tetrazol-5-yl)-ethyl]-3-(6-quinolin-3-yl-imidazo[1,2-a]pyridin-2-yl)-urea]: under setting [3], the affinity, expressed as Ki, was 0.57 µM.
Same read-out and setting: with `Cc1ccc(-c2ccc3nc(NC(=O)NCCc4nnn(C(C)C)n4)cn3c2)cn1` [Example 1-24, 1-[2-(2-Isopropyl-2H-tetrazol-5-yl)-ethyl]-3-[6-(6-methyl-pyridin-3-yl)-imidazo[1,2-a]pyridin-2-yl]urea] the figure was 0.113 µM; with `Cc1cc(NC(=O)CCNC(=O)Nc2cn3cc(Br)ccc3n2)no1` [Example 1-46, 3-[3-(6-Bromo-imidazo[1,2-a]pyridin-2-yl)-ureido]-N-(5-methyl-isoxazo-3-yl)-propionamide], 4.98 µM.
Take `CCc1cncc(-c2ccc3nc(NC(=O)NCCc4nnn(C(C)C)n4)cn3c2)c1` [drawing 57]: under setting [1], the Ki amounted to 0.025 µM.
With `CC(C)n1nnc(CCNC(=O)Nc2nc3ccc(-c4cncc(C(F)(F)F)c4)cc3s2)n1` [Example 2-10, 1-[2-(2-Isopropyl-2H-tetrazol-5-yl)-ethyl]-3-[6-(5-trifluoromethyl-pyridin-3-yl)-benzothiazol-2-yl]urea], affinity under setting [2] was put at a Ki of 0.092 µM.
With `CCn1nnc(CCNC(=O)Nc2cn3nc(-c4cncc(C#N)c4)ccc3n2)n1` [Example 3-2, 1-[6-(5-Cyano-pyridin-3-yl)-imidazo[1,2-b]pyridazin-2-yl]-3-[2-(2-ethyl-2H-tetrazol-5-yl)-ethyl]-urea], where the note is “Table 4”, the Ki turned out to be 0.031 µM.
As to `CCOc1cncc(-c2ccc3nc(NC(=O)NCCc4nnn(C(C)C)n4)cn3c2)c1` [drawing 25], the affinity under setting [1] corresponds to a Ki of 0.048 µM.
Under setting [3], `O=C(NCCn1nnc(C2CC2)n1)Nc1cn2cc(-c3cncc(C(F)(F)F)c3)ccc2n1` [Example 1-27, 1-[2-(5-Cyclopropyl-tetrazol-2-yl)-ethyl]-3-[6-(5-trifluoromethyl-pyridin-3-yl)-imidazo[1,2-a]pyridin-2-yl]-urea] registered a Ki of 0.028 µM.
Under setting [3], `CC(C)n1nnc(CCNC(=O)Nc2cn3cc(-c4cncc(C(F)(F)F)c4)ccc3n2)n1` [Example 1-7, 1-[2-(2-Isopropyl-2H-tetrazol-5-yl)-ethyl]-3-[6-(5-trifluoromethyl-pyridin-3-yl)-imidazo[1,2-a]pyridin-2-yl]-urea] came in with a Ki of 0.018 µM.
